In patent US10906915B2, “Substituted pyrazoloazepin-4-ones and their use as phosphodiesterase inhibitors” (LEO Pharma A/S, priority 2016, dated 2021):
Where two headings read alike, the source gives them in different places.

Molecular target: human PDE4D catalytic domain (UniProt no. Q08499) (Homo sapiens (Human), UniProt Q08499)
Assay: PDE4 assay (TR-FRET, FAM-cAMP cleavage)
Format: biochemical
Conditions: read-out: PDE4 IC50 range
In short: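 PDE4D catalytic domain ([…]) was incubated with unlabelled cAMP plus FAM-cAMP and titrated compound, stopped with binding buffer of metal-ion nanoparticles and Tb donor. AMP generation read by TR-FRET; IC50 as 50% inhibition of cleavage versus controls, reported as nM ranges.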

[1] = human PDE4D catalytic domain, molar concentration giving 50% inhibition of substrate cleavage

Chain of human PDE4D catalytic domain (Q08499 380-740 limits assumed): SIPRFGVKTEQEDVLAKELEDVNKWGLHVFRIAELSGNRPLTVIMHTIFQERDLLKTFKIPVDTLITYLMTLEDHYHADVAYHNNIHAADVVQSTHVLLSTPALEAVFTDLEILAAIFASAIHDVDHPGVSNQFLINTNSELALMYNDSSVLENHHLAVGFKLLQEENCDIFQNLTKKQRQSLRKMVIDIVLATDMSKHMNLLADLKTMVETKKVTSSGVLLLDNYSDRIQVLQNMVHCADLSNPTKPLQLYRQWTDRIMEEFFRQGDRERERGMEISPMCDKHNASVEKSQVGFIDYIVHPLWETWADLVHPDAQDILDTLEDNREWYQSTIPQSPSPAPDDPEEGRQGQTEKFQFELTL

| SMILES | IC50 [1] | IC50 |
| --- | --- | --- |
| CCc1nn(CCCOC(=O)c2cccc(S(C)(=O)=O)c2)c2c1C(=O)NCC1(CCOCC1)C2 [Example 99, 3-(3-ethyl-4-oxo-spiro[6,8-dihydro-5H-pyrazolo[4,3-c]azepine-7,4′-tetrahydropyran]-1-yl)propyl 3-methylsulfonylbenzoate] | < 100 nM |  |
| CCc1nn(CCCOC(=O)c2cccc(C(=O)N3CCCC3)c2)c2c1C(=O)NCC1(CCOCC1)C2 [Example 155, 3-(3-ethyl-4-oxo-spiro[6,8-dihydro-5H-pyrazolo[4,3-c]azepine-7,4′-tetrahydropyran]-1-yl)propyl 3-(pyrrolidine-1-carbonyl)benzoate] | < 100 nM |  |
| CCc1nn(CC2(COC(=O)c3cccc(F)c3)CC2)c2c1C(=O)NCC1(CCOCC1)C2 [Example 352, [1-[(3-ethyl-4-oxo-spiro[6,8-dihydro-5H-pyrazolo[4,3-c]azepine-7,4′-tetrahydropyran]-1-yl)methyl]cyclopropyl]methyl 3-fluorobenzoate] |  | < 100 nM |
| CCc1nn(CCCCOC(=O)c2ccc(S(=O)(=O)CC)cc2)c2c1C(=O)NCC1(CCOCC1)C2 [Example 371, 4-(3-ethyl-4-oxo-spiro[6,8-dihydro-5H-pyrazolo[4,3-c]azepine-7,4′-tetrahydropyran]-1-yl)butyl 4-ethylsulfonylbenzoate] |  | 100 to 500 nM |
| CCc1nn(C[C@@H](C)COC(=O)c2ccc(C(F)(F)F)c(C(F)(F)F)c2)c2c1C(=O)NCC1(CCOCC1)C2 [Example 247, [(2R)-3-(3-ethyl-4-oxo-spiro[6,8-dihydro-5H-pyrazolo[4,3-c]azepine-7,4′-tetrahydropyran]-1-yl)-2-methyl-propyl] 3,4-bis(trifluoromethyl)benzoate] | < 100 nM |  |
| CCc1nn(CCCOC(=O)c2ccc(C)c(F)c2)c2c1C(=O)NCC1(CCOCC1)C2 [Example 32, 3-(3-ethyl-4-oxo-spiro[6,8-dihydro-5H-pyrazolo[4,3-c]azepine-7,4′-tetrahydropyran]-1-yl)propyl 3-fluoro-4-methyl-benzoate] | < 100 nM |  |
| CCc1nn(CCCOC(=O)C2CCC(F)(F)CC2)c2c1C(=O)NCC1(CCOCC1)C2 [Example 49, 3-(3-ethyl-4-oxo-spiro[6,8-dihydro-5H-pyrazolo[4,3-c]azepine-7,4′-tetrahydropyran]-1-yl)propyl 4,4-difluorocyclohexane-carboxylate] | 100 to 500 nM |  |
| CCc1nn(CC(C)(C)COC(=O)c2cccc(C(=O)N3CCN(C(C)=O)CC3)c2)c2c1C(=O)NCC1(CCOCC1)C2 [Example 349, [3-(3-ethyl-4-oxo-spiro[6,8-dihydro-5H-pyrazolo[4,3-c]azepine-7,4′-tetrahydropyran]-1-yl)-2,2-dimethyl-propyl] 3-(4-acetylpiperazine-1-carbonyl)benzoate] |  | < 100 nM |
| CCc1nn(C[C@@H](C)COC(=O)c2ccc(Cl)cc2OC)c2c1C(=O)NCC1(CCOCC1)C2 [Example 211, [(2R)-3-(3-ethyl-4-oxo-spiro[6,8-dihydro-5H-pyrazolo[4,3-c]azepine-7,4′-tetrahydropyran]-1-yl)-2-methyl-propyl] 4-chloro-2-methoxy-benzoate] | < 100 nM |  |
| CCc1nn(C[C@@H](C)COC(=O)C(CC)CC)c2c1C(=O)NCC1(CCOCC1)C2 [Example 162, [(2R)-3-(3-ethyl-4-oxo-spiro[6,8-dihydro-5H-pyrazolo[4,3-c]azepine-7,4′-tetrahydropyran]-1-yl)-2-methyl-propyl] 2-ethylbutanoate] | < 100 nM |  |
| CCc1nn(CC(C)(C)COC(=O)c2ccccc2S(C)(=O)=O)c2c1C(=O)NCC1(CCOCC1)C2 [Example 307, [3-(3-ethyl-4-oxo-spiro[6,8-dihydro-5H-pyrazolo[4,3-c]azepine-7,4′-tetrahydropyran]-1-yl)-2,2-dimethyl-propyl] 2-methylsulfonylbenzoate] |  | < 100 nM |
| CCc1nn(CC(C)(C)COC(=O)c2cccc(S(C)(=O)=O)c2)c2c1C(=O)NCC1(CCOCC1)C2 [Example 305, [3-(3-ethyl-4-oxo-spiro[6,8-dihydro-5H-pyrazolo[4,3-c]azepine-7,4′-tetrahydropyran]-1-yl)-2,2-dimethyl-propyl] 3-methylsulfonylbenzoate] |  | < 100 nM |
| CCc1nn(CCCOC(=O)c2cccc(OC)c2F)c2c1C(=O)NCC1(CCOCC1)C2 [Example 66, 3-(3-ethyl-4-oxo-spiro[6,8-dihydro-5H-pyrazolo[4,3-c]azepine-7,4′-tetrahydropyran]-1-yl)propyl 2-fluoro-3-methoxy-benzoate] | < 100 nM |  |
| CCNC(=O)c1ccc(C(=O)OC[C@H](C)Cn2nc(CC)c3c2CC2(CCOCC2)CNC3=O)cc1 [Example 254, [(2R)-3-(3-ethyl-4-oxo-spiro[6,8-dihydro-5H-pyrazolo[4,3-c]azepine-7,4′-tetrahydropyran]-1-yl)-2-methyl-propyl] 4-(ethylcarbamoyl)benzoate] | < 100 nM |  |
| CCc1nn(CCCOC(=O)c2cccc(C(=O)N3CCN(C(C)=O)CC3)c2)c2c1C(=O)NCC1(CCOCC1)C2 [Example 159, 3-(3-ethyl-4-oxo-spiro[6,8-dihydro-5H-pyrazolo[4,3-c]azepine-7,4′-tetrahydropyran]-1-yl)propyl 3-(4-acetylpiperazine-1-carbonyl)benzoate] | < 100 nM |  |
| CCc1nn(C[C@@H](C)COC(=O)c2ccc(F)cc2C(F)(F)F)c2c1C(=O)NCC1(CCOCC1)C2 [Example 222, [(2R)-3-(3-ethyl-4-oxo-spiro[6,8-dihydro-5H-pyrazolo[4,3-c]azepine-7,4′-tetrahydropyran]-1-yl)-2-methyl-propyl] 4-fluoro-2-(trifluoromethyl)benzoate] | < 100 nM |  |
| CCc1nn(CC2(COC(=O)c3ccc(Cl)cc3)CC2)c2c1C(=O)NCC1(CCOCC1)C2 [Example 355, [1-[(3-ethyl-4-oxo-spiro[6,8 dihydro-5H-pyrazolo[4,3-c]azepine-7,4′-letrahydropyran]-1-yl)methyl]cyclopropyl]methyl 4-chlorobenzoate] |  | < 100 nM |
| CCc1nn(C[C@@H](C)COC(=O)c2ccc(S(C)(=O)=O)cc2)c2c1C(=O)NCC1(CCOCC1)C2 [Example 5, [(2R)-3-(3-ethyl-4-oxo-spiro[6,8-dihydro-5H-pyrazolo[4,3-c]azepine-7,4′-tetrahydro-pyran]-1-yl)-2-methyl-propyl] 4-methylsulfonylbenzoate] | < 100 nM |  |
| CCc1nn(CCCOC(=O)c2ccc(C#N)cc2)c2c1C(=O)NCC1(CCOCC1)C2 [Example 24, 3-(3-ethyl-4-oxo-spiro[6,8-dihydro-5H-pyrazolo[4,3-c]azepine-7,4′-tetrahydropyran]-1-yl)propyl 4-cyanobenzoate] | < 100 nM |  |
| CCc1nn(CCCOC(=O)C(CC)CC)c2c1C(=O)NCC1(CCOCC1)C2 [Example 11, 3-(3-ethyl-4-oxo-spiro[6,8-dihydro-5H-pyrazolo[4,3-c]azepine-7,4′-tetrahydropyran]-1-yl)propyl 2-ethylbutanoate] | < 100 nM |  |
| CCc1nn(CC(C)(C)COC(=O)C2CCCC2)c2c1C(=O)NCC1(CCOCC1)C2 [Example 281, [3-(3-ethyl-4-oxo-spiro[6,8-dihydro-5H-pyrazolo[4,3-c]azepine-7,4′-tetrahydropyran]-1-yl)-2,2-dimethyl-propyl] cyclopentanecarboxylate] |  | < 100 nM |
| CCc1nn(CCCOC(=O)c2ccc(C(F)(F)F)c(F)c2)c2c1C(=O)NCC1(CCOCC1)C2 [Example 110, 3-(3-ethyl-4-oxo-spiro[6,8-dihydro-5H-pyrazolo[4,3-c]azepine-7,4′-tetrahydropyran]-1-yl)propyl 3-fluoro-4-(trifluoromethyl)benzoate] | < 100 nM |  |
| CCc1nn(CCCOC(=O)c2cccc(C(F)(F)F)c2)c2c1C(=O)NCC1(CCOCC1)C2 [Example 96, 3-(3-ethyl-4-oxo-spiro[6,8-dihydro-5H-pyrazolo[4,3-c]azepine-7,4′-tetrahydropyran]-1-yl)propyl 3-(trifluoromethyl)benzoate] | < 100 nM |  |
| CCOc1cccc(C(=O)OCC(C)(C)Cn2nc(CC)c3c2CC2(CCOCC2)CNC3=O)c1 [Example 299, [3-(3-ethyl-4-oxo-spiro[6,8-dihydro-5H-pyrazolo[4,3-c]azepine-7,4′-tetrahydropyran]-1-yl)-2,2-dimethyl-propyl] 3-ethoxybenzoate] |  | < 100 nM |
| CCc1nn(C[C@@H](C)COC(=O)c2cccc(C(=O)N3CCCC3)c2)c2c1C(=O)NCC1(CCOCC1)C2 [Example 268, [(2R)-3-(3-ethyl-4-oxo-spiro[6,8-dihydro-5H-pyrazolo[4,3-c]azepine-7,4′-tetrahydropyran]-1-yl)-2-methyl-propyl] 3-(pyrrolidine-1-carbonyl)benzoate] |  | < 100 nM |
| CCc1nn(C[C@@H](C)COC(=O)c2cccc(S(=O)(=O)C(C)C)c2)c2c1C(=O)NCC1(CCOCC1)C2 [Example 242, [(2R)-3-(3-ethyl-4-oxo-spiro[6,8-dihydro-5H-pyrazolo[4,3-c]azepine-7,4′-tetrahydropyran]-1-yl)-2-methyl-propyl] 3-isopropylsulfonylbenzoate] | < 100 nM |  |
| CCc1nn(CCCOC(=O)c2cc(Cl)cc(C(F)(F)F)c2)c2c1C(=O)NCC1(CCOCC1)C2 [Example 127, 3-(3-ethyl-4-oxo-spiro[6,8-dihydro-5H-pyrazolo[4,3-c]azepine-7,4′-tetrahydropyran]-1-yl)propyl 3-chloro-5-(trifluoromethyl)benzoate] | < 100 nM |  |
| CCc1nn(CCCOC(=O)c2ccc(S(=O)(=O)C3CCCC3)cc2)c2c1C(=O)NCC1(CCOCC1)C2 [Example 132, 3-(3-ethyl-4-oxo-spiro[6,8-dihydro-5H-pyrazolo[4,3-c]azepine-7,4′-tetrahydropyran]-1-yl)propyl 4-cyclopentylsulfonyl-benzoate] | 100 to 500 nM |  |
| CCc1nn(CC(C)(C)COC(=O)c2ccc(C(=O)N3CCNCC3)cc2)c2c1C(=O)NCC1(CCOCC1)C2 [Example 335, [3-(3-ethyl-4-oxo-spiro[6,8-dihydro-5H-pyrazolo[4,3-c]azepine-7,4′-tetrahydropyran]-1-yl)-2,2-dimethyl-propyl] 4-(piperazine-1-carbonyl)benzoate] |  | < 100 nM |
